Reference: US9840470B2, “Targeting GLI proteins in human cancer by small molecules” (The Regents of the University of California, priority 2013, dated 2017)

Columns and labels:
NSCLC A549 = experiment: In vivo efficacy, mouse xenograft model (lung cancer A549); details: 50 mg/kg i.p. daily for 14 days, then 50 mg/kg daily for 1x7 days; tumors weighed 43 days after inoculation
Method: (§1) The administered compounds were tested in vivo in the mouse xenograft model bearing human cancer cells. Briefly, female athymic nude mice strain NCRNU-M (5-10 weeks old, 20-25 grams in weight; Taconic, Germantown, N.Y.) was maintained in pathogen-free conditions. Three human cancer cell lines: NSCLC A549, melanoma MelJuso, and mesothelioma MS-1 were used. Five or ten mice were used in each group and injected s.c. with 3×10^6 cancer cells in the dorsal area in a volume of 100 μl. After inoculation, human cancer cells were allowed to grow in mice for 10-13 days to become visible tumor nodules. Animals were then injected with a compound of the embodiments at a dose of 50 mg/kg body weight (1 mg/mouse per day). Vehicle alone was used as control. The compounds and controls were adjusted in 40 ul volume for i.p. injection in the abdomens of the mice. Injections were performed daily around the same time for 14 days. […] Tumor size was measured every three to four days, and tumor volumes were calculated using width (x) and length (y) (x^2y/2, where x<y). Throughout this period, general toxicity of the treatments was also monitored by measuring body weight of the mice. […]
In vivo efficacy study of Compounds 1 and 4 in Mouse Xenograft Model (NSCLC A549) was examined. […] 43 days after the initial tumor inoculation, tumors were dissected from the mice of each group and their weights were measured using a scale. […]

[1] = system: Hedgehog signaling pathway; experiment: Quantitative RT-PCR of Hh pathway genes in xenograft tumors; assay type: in vivo, mouse; details: Melanoma tumor (MelJuso), pooled tumor from two mice
Method: (§2) Total RNA was isolated using Qiagen RNeasy Mini Kit (Valencia, Calif.). Hybridization probes and primers (Table 1) were purchased from Applied Biosystems (ABI, Foster City, Calif.). cDNA synthesis and Taqman® PCR were performed according to the manufactures' protocols. The gene expression was assayed in triplicate in ABI 7300 Real-time PCR System. Samples were normalized to their housekeeping gene GAPDH and then calculated by using 2^−dct method.
To examine whether Compounds 1, 2, 4, and 6 suppressed tumor growth through inhibition of the Hedgehog signaling pathway in vivo, expression of the key components and direct target genes of the Hh pathway (e.g. Gli1, Gli2, Gli3, HHIP and Cyclin D1) were analyzed by quantitative real-time RT-PCR using total RNA isolated from the xenograft tumors. GAPDH served as a control. This RT-PCR analysis was performed using a “pooled” tumor from two randomly selected mice of each group with reasonable size tumors. […] The results are shown in FIG. 4, where C is control and V is vehicle.

Wnt signaling pathway = experiment: Quantitative RT-PCR of canonical Wnt pathway genes in xenograft tumors; assay type: in vivo, mouse; details: Melanoma tumor, pooled tumor from two mice, compared to controls
Method: as §2
To examine whether Compounds 1, 2, 4, and 6 suppressed tumor growth through inhibition of the Wnt signaling pathway in vivo, expression of the key components and direct target genes of the Wnt pathway (e.g. Wnt2, Axin2, EGFR, and Cyclin D1) were analyzed by quantitative real-time RT-PCR using total RNA isolated from the xenograft tumors. GAPDH served as a control. This RT-PCR analysis was performed using a “pooled” tumor from two randomly selected mice of each group with reasonable size tumors. […] The results are shown in FIG. 4, where C is control and V is vehicle.

melanoma MelJuso = experiment: In vivo efficacy, mouse xenograft model (melanoma MelJuso); details: for tumor growth: 50 mg/kg body weight i.p. daily for 14 days, from 13 days after inoculation; for tumor weight (FIG. 1): melanoma MelJuso xenograft, after treatment
Method: (§3) The administered compounds were tested in vivo in the mouse xenograft model bearing human cancer cells. Briefly, female athymic nude mice strain NCRNU-M (5-10 weeks old, 20-25 grams in weight; Taconic, Germantown, N.Y.) was maintained in pathogen-free conditions. Three human cancer cell lines: NSCLC A549, melanoma MelJuso, and mesothelioma MS-1 were used. Five or ten mice were used in each group and injected s.c. with 3×10^6 cancer cells in the dorsal area in a volume of 100 μl. After inoculation, human cancer cells were allowed to grow in mice for 10-13 days to become visible tumor nodules. Animals were then injected with a compound of the embodiments at a dose of 50 mg/kg body weight (1 mg/mouse per day). Vehicle alone was used as control. The compounds and controls were adjusted in 40 ul volume for i.p. injection in the abdomens of the mice. Injections were performed daily around the same time for 14 days. Tumors were allowed to grow for 1-2 additional weeks after completion of the compound treatments. Tumor size was measured every three to four days, and tumor volumes were calculated using width (x) and length (y) (x^2y/2, where x<y). Throughout this period, general toxicity of the treatments was also monitored by measuring body weight of the mice. Data was presented as mean values (±S.D.).
In vivo efficacy study of Compounds 1, 2, 4, and 6 were performed using a Mouse Xenograft Model (Melanoma MelJuso). Mice were injected s.c. with 3×10^6 cells in the dorsal area in a volume of 100 μl. 13 days after inoculation, the mice started receiving treatments with the administered compound at a dose of 50 mg/kg body weight daily for 14 days (n=10). Vehicle alone was used as control (n=10). The administered compounds and vehicle were adjusted in a volume of 40 μl for i.p. injection in the abdomens of the mice. Tumor size and tumor volumes were calculated as described above.

[2] = Preliminary in vivo toxicity: leukocyte population and body weight after treatment; parameters: species or system mouse; details: for changes of leukocyte population: at completion of the in vivo studies; for loss of body weight: during the course of drug administration
Method: as §3
(§4) After the in vivo studies were completed, different organs were resected from mice. These organs included liver, lung, heart, kidney, intestines, ovary, brain, spleen, skin, and muscle. The specimens were fixed in 4% buffered formaldehyde, embedded in paraffin, sectioned, and histologically analyzed by hematoxylin and eosin (HE) staining. The HE stained slides were examined by a mouse pathologist for toxicity evidence from all the organs as compared with vehicle controls. In addition, leukocytes (WBC: white blood cell, NE: neutrophil, LY: lymphocyte, MO: monocyte, EO: eosinophil, BA: basophil) from each animal from all treatment groups were collected and leukocyte population was counted through a blood cell counter.
(§5) As preliminary in vivo toxicity study of Compounds 1, 2, 4, and 6, it was examined if there were changes of leukocyte population and loss of body weight in the mice after the treatment. At the completion of the in vivo studies as described herein, leukocytes (WBC: white blood cell, NE: neutrophil, LY: lymphocyte, MO: monocyte, EO: eosinophil, BA: basophil) from each animal from all treatment groups were collected and leukocyte population was counted through a blood cell counter. Body weights of control groups (n=10) and the treated group (n=10) were measured using a scale during the course of drug administration. […] In an additional toxicity study, effect of different doses of compounds 4 and 6 on the body weight of mice was examined. The compounds were i.p. injected in the abdomens at 3 different doses: 25, 50, and 100 mg/kg body weight to mice (3 mice per dosing group) for 6 consecutive days.

mesothelioma MS-1 = experiment: In vivo efficacy, mouse xenograft model (mesothelioma MS-1); details: 50 mg/kg body weight i.p. daily for 14 days, from ten days after inoculation
Method: as §1
In vivo efficacy study of Compounds 1 and 4 were performed using a Mouse Xenograft Model (Mesothelioma MS-1). […] Tumor sizes was measured twice weekly until the completion of the experiments. […]

[3] = Histological (H&E) examination of mouse organs for toxicity; assay type: in vivo; details: i.p. two doses daily for 6 days; liver, spleen, kidney, heart
Source text: as §4
To analyze toxicity of the Compounds 1, 2, 4, and 6 in vivo, each group (three mice) was i.p. injected with two doses of each Compound daily for 6 days, and then major mouse organs, such as liver, spleen, kidney, and heart were resected from the mice.

[4] = Additional toxicity study: body weight at different doses; assay type: in vivo, mouse; details: i.p. 25, 50, and 100 mg/kg body weight for 6 consecutive days
Method: Each dosing group contained 3 mice. The body weight of mice was measured using a scale. Results are the means±SD (error bars).
as §5

human NSCLC cell lines = experiment: Combination treatment with chemotherapies, MTS proliferation assay, lung cancer cells; assay type: cell-based; details: 72 hours, Combination Index
Source text: (§6) Another assay for determining the number of viable cells in proliferation or cytotoxicity assays is the MTS assay, a colorimetric method. MTS assay reagents are commercially available (Promega Corp., Madison, Wis.). The reagent contains a tetrazolium compound [3-(4,5-dimethylthiazol-2-yl)-5-(3-carboxymethoxyphenyl)-2-(4-sulfophenyl)-2H-tetrazolium, inner salt; MTS] and an electron coupling reagent (phenazine ethosulfate; PES). PES has enhanced chemical stability, which allows it to be combined with MTS to form a stable solution. The MTS tetrazolium compound (Owen's reagent) is bioreduced by cells into a colored formazan product that is soluble in tissue culture medium. This conversion may be accomplished by NADPH or NADH produced by dehydrogenase enzymes in metabolically active cells. The quantity of formazan product as measured by the absorbance at 490 nm is directly proportional to the number of living cells in culture. Because the MTS formazan product is soluble in tissue culture medium, this assay requires fewer steps than procedures that use tetrazolium compounds such as MTT. The formazan product of MTT reduction is a crystalline precipitate that requires an additional step in the procedure to dissolve the crystals before recording absorbance readings at 570 nm.
(§7) Combination treatments of the Compounds with several chemotherapies: erlotinib (Tarceva®), PI3K inhibitor LY294002, TGFβ inhibitor SB431542, and pemetrexed (Alimta®) were performed in human NSCLC and MM cell lines (FIGS. 12-17). In all experiments, NSCLC and MM cell lines were treated with different doses of each compound or combination for 72 hours, and MTS assays were performed to determine the cell proliferations. Combination Index (CI), calculated by CalcuSyn software (Biosoft, Cambridge, UK), was applied to describe the effect of the combination effects of two compounds, where CI<1 indicates Synergism, CI=1 indicates Additive effects, and CI>1 indicates Antagonism. Student's t-tests were applied for statistical analysis.

[5] = system: human MM cell lines (mesothelioma cells); experiment: Combination treatment with chemotherapies, MTS proliferation assay, mesothelioma cells; assay type: cell-based; details: 72 hours, Combination Index
Source text: as §6, §7

Row | SMILES | tumor weight compared to the control group (NSCLC A549) | Hh signaling (expression of Gli1, Gli2, Gli3, HHIP, Cyclin D1) [1] | expression of the key indicator of the canonical Wnt activation (Wnt signaling pathway) | tumor growth (melanoma MelJuso) | tumor weight (FIG. 1) (melanoma MelJuso) | changes of leukocyte population [2] | loss of body weight [2] | tumor weight compared to the control group (mesothelioma MS-1) | toxicity in organs (H&E histology) [3] | loss of body weight [4] | combination effect with erlotinib (Tarceva) (human NSCLC cell lines) | combination effect with erlotinib (Tarceva) [5] | combination effect with PI3K inhibitor LY294002 (human NSCLC cell lines) | combination effect with TGFβ inhibitor SB431542 (human NSCLC cell lines) | combination effect with PI3K inhibitor LY294002 [5] | combination effect with pemetrexed (Alimta) [5]
1 | CC(C)(CO)CCCNC(=O)C1C(c2ccccc2)=NN(c2ccccc2)C1c1ccsc1 (stereo not drawn) [Compound 1, 1,3-diphenyl-5-thiophen-3-yl-4,5-dihydro-1H-pyrazole-4-carboxylic acid (5-hydroxy-4,4-dimethyl-pentyl)-amide] | decreased | inhibited | significantly down-regulated | dramatically suppressed | significantly decreased | No noticeable changes of leukocyte population | No noticeable changes of leukocyte population or loss of the body weight | decreased | No noticeable toxicity | – | – | – | – | – | – | –
2 | O=C(NCc1ccc(O)cc1)C1C(c2ccccc2)=NN(c2ccccc2)C1c1ccccc1 (stereo not drawn) [Compound 2, 1,3,5-triphenyl-4,5-dihydro-1H-pyrazole-4-carboxylic acid 4-hydroxy-benzylamide] | – | inhibited | significantly down-regulated | dramatically suppressed | significantly decreased | No noticeable changes of leukocyte population | No noticeable changes of leukocyte population or loss of the body weight | – | No noticeable toxicity | – | – | – | – | – | – | –
3 | CCCC1C(C(=O)NCCCC(C)(C)CO)C(c2ccc(F)cc2)=NN1c1ccccc1 (stereo not drawn) [Compound 4, 3-(4-fluoro-phenyl)-1-phenyl-5-propyl-4,5-dihydro-1H-pyrazole-4-carboxylic acid (5-hydroxy-4,4-dimethyl-pentyl)-amide] | decreased | inhibited | significantly down-regulated | dramatically suppressed | significantly decreased | No noticeable changes of leukocyte population | No noticeable changes of leukocyte population or loss of the body weight | decreased | No noticeable toxicity | no noticeable loss of the body weight | synergy | synergy | – | – | – | –
4 | CC(C)(CO)CCCNC(=O)C1C(c2ccc(F)cc2)=NN(c2ccccc2)C1c1cccc(F)c1 (stereo not drawn) [Compound 6, 3-(4-fluoro-phenyl)-5-(3-fluoro-phenyl)-1-phenyl-4,5-dihydro-1H-pyrazole-4-carboxylic acid (5-hydroxy-4,4-dimethyl-pentyl)-amide] | – | inhibited | – | dramatically suppressed | significantly decreased | No noticeable changes of leukocyte population | No noticeable changes of leukocyte population or loss of the body weight | – | No noticeable toxicity | no noticeable loss of the body weight | – | – | synergy | synergy | synergy | synergy
